Laboratory results as given in patent publication US10011814B2, “Salt formulations for the fermentation of marine microorganisms” (Triphase Research and Development I Corp., priority 2006, dated 2018).

Tests used:
[1] = system: Salinispora tropica CNB476; test: Production of Salinosporamide A and analogs in shake flask culture; titers by HPLC; settings: Ex.21, CoCl2·6H2O 208 μg/L seed, 52 μg/L production vs no cobalt
Method: (§1) To determine the production profile of Low Sodium Frozen Stocks cultures of CNB440, CNB476 and NPS21184 grown up in low sodium production medium, 5 mL each of the 48-hour second seed culture samples of CNB476 and NPS21184 was used to inoculate 100 mL of production medium having the same composition as the seed medium in a 500-mL Erlenmeyer flasks. For CNB440, 5 mL of the 72 hour second seed culture sample was used to inoculate 100 mL of production medium having the same composition as the seed medium in a 500-mL Erlenmeyer flasks. The production cultures were incubated at 250 rpm and 28° C.
(§2) 3.5 mL of the fermentation culture was mixed with equal volume of EtOAc in an extraction tube to extract the various metabolites from the production culture. The mixture was shaken on the shaker for 1 hr. […]
(§3) The production of Salinosporamide A, NPI-0047 and NPI-2065 was monitored by Agilent HP1100 HPLC using an ACE C-18 reversed-phase column (4.6×150 mm), and solvent system consisting of water (0.01% TFA) as solvent A and acetonitrile (0.01% TFA) as solvent B. The elution was started at 100% solvent A for 1 min, 100% solvent A to 35% solvent A gradient in 7 min, held at 35% solvent A for 11 min, 35% solvent A to 100% solvent B in 8 min and held at 100% solvent B for 9 min at a flow rate of 1.5 mL/min with the detector wavelength set at 210 nm and column temperature 35° C. […]

[2] = system: Salinispora tropica CNB440; test: as above; settings: Ex.21, CoCl2·6H2O 208 μg/L seed, 52 μg/L production vs no cobalt
Method: as §1, §2, §3

## CC[C@H]1C(=O)N[C@@]2([C@@H](O)[C@@H]3C=CCCC3)C(=O)O[C@@]12C [NPI-0047, Salinosporamide B]
[1]
  reduction of production by cobalt: 52%
[2]
  reduction of production by cobalt: 48%
